Results from patent EP0076713B1, “Aminomethyl-1H-indole-4-methanol derivatives and their salts, process and intermediates for their preparation, their use as medicines and compositions containing them” (ROUSSEL-UCLAF, priority 1981, dated 1983).
Structures can show the parent of a compound that is named as a salt.

Columns and labels:
Type in all cases: in vivo
[1] = system: souris; assay: Acute toxicity, oral administration in mice
Source text: On a évalué les doses létales DLo des différents composés testés après administration par voie orale chez la souris.
On apelle DLo la dose maximale ne provoquant aucune mortalité en 8 jours.

[2] = system: rats mâles de souche WISTAR; assay: Hypotensive activity in anaesthetised rats (carotid arterial pressure, intravenous administration); conditions: relative to initial control pressure
Description: A) Détermination de l'activité hypotensive L'activité hypotensive a été étudiée sur des rats mâles de souche WISTAR pensant 300 g environ et anesthésiés au nembutal (50 mg/kg par voie intraveineuse).
Le produit testé a été administré par voie intraveineuse dans la veine jugulaire.
La pression artérielle carotidienne a été mesurée avant et après administration du produit testé.
Le tableau ci-après indique les variations exprimées en pourcentage de la pression artérielle après administration du produit testé par rapport à la pression artérielle témoin initiale: […]

[3] = system: rats mâles spontanément hypertendus (souche Okamoto); assay: Antihypertensive activity in spontaneously hypertensive rats (tail arterial pressure, oral administration); conditions: 1 mg/kg oral, relative to initial control pressure; for Variation % de la pression arterielle 1 heure après l'administration: 1 hour; for Variation % de la pression arterielle 4 heures après l'administration: 4 hours
Source text: L'action antihypertensive a été étudiée sur des rats mâles spontanément hypertendus (souche Okamoto) âgés de 20 semaines pesant 300 à 320g.
Le produit a été administré par voie orale 48 heures après la pose d'un cathéter intracarotidien.
La pression artérielle a été mesurée à la queue du rat au moyen d'un manchon pneumatique et à l'aide d'un transducteur piezo-électrique de pression. La pression a été mesurée avant et une heure, quatre heures et vingt-quatre heures après l'administration du produit.
Le tableau ci-après indique les variations exprimées en pourcentages de la pression artérielle, après administration du produit, par rapport à la pression témoin initiale.

[4] = system: ulcéres au niveau de l'estomac, par ligature du pylore; assay: Antiulcer activity, Shay technique (gastric ulcers induced by pylorus ligation); conditions: pylorus-ligated rats, about 16 hours after treatment
Source text: La technique utilisée est décrite par SHAY et al dans Gastroenterology, 5, 43 (1945).
La technique de SHAY consiste à induire chez ez des rats des ulcéres au niveau de l'estomac, par ligature du pylore.
Les animaux sont anesthésiés à l'éther. Une incision longitudinale est faite 1 cm environ au-dessous du sternum, la partie glandulaire de l'estomac et le duodénum sont mis à jour et une ligature est posée quelques mm au-dessous du pylore. Le plan musculaire est laissé tel quel et la peau est suturée par deux agrafes.
Les animaux reçoivent aussitôt après le dispersif ou la substance à étudier, par voie buccale, sous un volume de 0,5 ml/100 g, et sont maintenus sans nourriture ni boisson, jusqu'au sacrifice par saignée carotidienne qui a lieu environ 16 heures après le traitement.
Avant de prélèver l'estomac, une ligature est possé au-dessus du cardia.
Le liquide gastrique est recueilli afin d'en mesure le pH.
L'estomac est ensuite ouvert selon la grande courbure, rincé dans le sérum physiologique et étalé sur du papier millimétrique pour être examiné sous la loupe binoculaire.
On évalue macroscopiquement la gravité des lésions qui est côtée de 0 à 4 pour chaque estomac.
On détermine pour chaque lot de rat, l'intensité moyenne des ulcérations et on calcule la protection en rapportant l'index moyen du groupe à l'index moyen du groupe témoin.
On détermine également les valeurs de pH du liquide gastrique pour les animaux traités et les animaux témoins.

[5] = oral, mice, maximal dose causing no mortality in 8 days
[6] = dose −0,1 mg/kg [sic], intravenous

Compound	DLo ([1]; mouse, in vivo, po, 11520 min)	Variation % de la pression arterielle 1 minute après l'administration ([2]; 0,1 mg/kg intravenous)	Variation % de la pression arterielle 5 minutes après l'administration ([2]; 0,1 mg/kg intravenous)	Variation % de la pression arterielle 10 minutes après l'administration ([2]; 0,1 mg/kg intravenous)	Variation % de la pression arterielle 30 minutes après l'administration ([2]; 0,1 mg/kg intravenous)	Variation % de la pression arterielle 1 minute après l'administration ([2]; 1 mg/kg intravenous)	Variation % de la pression arterielle 5 minutes après l'administration ([2]; 1 mg/kg intravenous)	Variation % de la pression arterielle 10 minutes après l'administration ([2]; 1 mg/kg intravenous)	Variation % de la pression arterielle 30 minutes après l'administration ([2]; 1 mg/kg intravenous)	DLo [1, 5]	Variation % de la pression arterielle 1 minute après l'administration ([2]; 10 mg/kg intravenous)	Variation % de la pression arterielle 5 minutes après l'administration ([2]; 10 mg/kg intravenous)	Variation % de la pression arterielle 10 minutes après l'administration ([2]; 10 mg/kg intravenous)	Variation % de la pression arterielle 30 minutes après l'administration ([2]; 10 mg/kg intravenous)	also measured
Oxalate neutre de 1'a[[(1-méthyléthyl)amino]méthyl]-1H-indole-4-méthanol [Exemple 2]	200 mg/kg	−36%	−28%	−30%	−27%	−41%	−38%	−29%	−20%	–	–	–	–	–	Variation % de la pression arterielle 1 heure après l'administration [3]: −22%; Variation % de la pression arterielle 4 heures après l'administration [3]: −21%
CNCC(O)c1cccc2c1CCN2 (centres unmarked) [Exemple 6, a-(méthylamino)métyl-2,3-dihydro-1 H-indole-4-méthanol]	–	–	–	–	–	–	–	–	–	> 400 mg/kg	–	–	–	–	–
CC(C)NCC(O)c1cccc2c1CCN2 (stereo not drawn) [Exemple 5, α-[[(1-méthyléthyl)amino]méthyl]2,3-dihydro-1H-indole-4-méthanol]	–	−24%	−28%	−26%	−22%	−20%	−19%	−17%	−14%	200 mg/kg	–	–	–	–	Ulcération % de protection par rapport aux témoins ([4]; 0,4 mg/kg oral): 60%; pH du liquide gastrique animaux traités ([4]; 0,4 mg/kg oral, controls pH 2,2): 2,5; Ulcération % de protection par rapport aux témoins ([4]; 0,08 mg/kg oral): 66%; pH du liquide gastrique animaux traités ([4]; 0,08 mg/kg oral, controls pH 2,2): 2,6; Ulcération % de protection par rapport aux témoins ([4]; 2 mg/kg oral): 90%; pH du liquide gastrique animaux traités ([4]; 2 mg/kg oral, controls pH 2): 2,6; Variation % de la pression arterielle 1 heure après l'administration [3]: −27%; Variation % de la pression arterielle 4 heures après l'administration [3]: −24%; Variation % de la pression arterielle 24 heures après l'administration ([3]; 24 hours): −17%
CCCNCC(O)c1cccc2[nH]ccc12 (centres unmarked) [Exemple 11, Oxalatede 1'a[[(1-propyl)amino]méthyl]-1H-indole-4-méthanol]	–	−11%	−12%	−12%	−13%	−22%	−33%	−33%	−30%	100 mg/kg	–	–	–	–	Ulcération % de protection par rapport aux témoins ([4]; 1 mg/kg oral): 48%; pH du liquide gastrique animaux traités ([4]; 1 mg/kg oral, controls pH 3,3): 3,2; Ulcération % de protection par rapport aux témoins ([4]; 5 mg/kg oral): 63%; pH du liquide gastrique animaux traités ([4]; 5 mg/kg oral, controls pH 3,0): 2,9
OC(CNCCc1ccccc1)c1cccc2[nH]ccc12 (centres unmarked) [Exemple 9, Oxalate acidede 1'a-[[(2-phényléthyl)amino]méthyl]-1 H-indole-4-méthanol]	80 mg/kg	–	–	–	–	−13%	−11%	−4%	−3%	–	−48%	−44%	−37%	−33%	–
NCC(O)c1cccc2[nH]ccc12 (stereo not drawn) [Exemple 1, Fumaratede 1α-(aminométhyl)-1H-indole-4-méthanol]	–	–	–	–	–	–	–	–	–	>1000 mg/kg	–	–	–	–	–
OC(CNCc1ccccc1)c1cccc2[nH]ccc12 (centres unmarked) [Exemple 8, Oxalate acidede 1'a[[(phénylméthyl)amino]méthyl]-1 H-indole-4-méthanol]	–	–	–	–	–	−9%	−8%	−6%	−10%	100 mg/kg	−38%	−21%	−21%	−15%	–
CNCC(O)c1cccc2[nH]ccc12 (centres unmarked) [Exemple 3, a-(méthylamino)méthyl-1 H-indole-4-méthanol]	–	–	–	−5%	–	–	–	–	–	600 mg/kg	–	–	–	–	Variation % de la pression arterielle 1 minute après l'administration [2, 6]: +19%; Variation % de la pression arterielle 5 minutes après l'administration [2, 6]: −4%; Variation % de la pression arterielle 30 minutes après l'administration [2, 6]: −9%
oxalate neutre de 1'a-[[(1-éthylpropyl)amino]méthyl]-1 H-indole-4-méthanol [Exemple 7]	80 mg/kg	–	–	–	–	–	–	–	–	–	−59%	−56%	−50%	−35%	–
OC(CNCC(O)c1cccc2[nH]ccc12)COc1ccccc1 (centres unmarked) [Exemple 10, a-[[(2-hydroxy-3-phénoxy-propyl)amino]méthyl]-1H-indole-4-méthanol]	> 400 mg/kg	–	–	–	–	−32%	−14%	−15%	−13%	–	–	–	–	–	–
